Assays:
[1] = tested on: injured carotid artery; experiment: Carotid artery angiography in the rat carotid artery balloon injury model; format: in vivo; details: 100 μg obovatol in 100 μL pluronic gel, topical to injured carotid artery; 14 days after arteriotomy; mean±S.E.; control 0.63±0.12; p<0.01
Description: A 4F vascular cannula (Cook, USA) was inserted into the ventral aorta and the catheter was advanced toward the head to a locus as close as possible to a branch between the common carotid arteryand the transverse aorta. After the injection of a contrast media (Visipaque™, Amersham Health, Cork, Ireland), mean luminal diameters (MLD) were measured using computerized coronary angiography (DCI Videodensitometry, Phillips, Netherlands)(See FIG. 1˜FIG. 8).
They were measured for the inner diameter of the carotid artery using a 5F coronary catheter, and the mean value thereof was used as a control.

[2] = tested on: arterial smooth muscle cells; experiment: Inhibition of PDGF-induced arterial smooth muscle cell proliferation (cell count); format: cell-based, rat; details: obovatol 1, 3, 5 μM; 50 ng/ml PDGF-BB; 24, 48, 72 hours; FIG. 9
Description: Obovatol was examined for inhibitory activity against the proliferation of arterial smooth muscle cells in rats. Arterial smooth muscle cells were plated at a density of 3.0×10^4 cells/well onto 12-well plates containing a DMEM medium supplemented with 0.5% (V/V) fetal bovine serum, and incubated for 24 hours After the addition of obovatol (1, 3, and 5 μM) to the plates, the cells were incubated for 24 hours. Treatment with 50 ng/ml of platelet-derived growth factor (PDGF-BB, Sigma Chem. Co., USA) was followed by incubation for 24, 48, and 72 hours. Thereafter, the cells were trypsinized and counted using a cell counter.

[3] = tested on: arterial smooth muscle cells; experiment: Inhibition of DNA synthesis ([3H] thymidine) in PDGF-treated arterial smooth muscle cells; format: cell-based, rat; details: obovatol 1, 3, 5 μM, FIG. 10
Description: Arterial smooth muscle cells were cultured in the same manner as in Example 4, with the exception that the cells were cultured for 20 hours after treatment with platelet-derived growth factor, and then cultured for 4 hours in the presence of 1 μl of [3H] thymidine. The cultured cells were washed with PBS and incubated with 500 μl of TCA (trichloroacetic acid) for 30 min. After the removal of TCA, the cells were washed with a mixture of 1:1 ethanol:ether (v/v) and disrupted with 500 μl of NaOH. The cell lysate was mixed with 5 ml of a scintillation cocktail and measured for radioactivity to analyze relative amounts of newly synthesized DNA. FIG. 10 is a graph in which amounts of newly synthesized DNA in PDGF-treated arterial smooth muscle cells are plotted against concentrations of obovatol.

[4] = tested on: arterial smooth muscle cells; experiment: Cell cycle of arterial smooth muscle cells; format: cell-based
[5] = tested on: ICR mice; experiment: Acute toxicity assay in mice; format: in vivo, mouse; details: abdominal injection 1000, 100, 10 mg/kg
Description: (§1) ICR mice (weighing 25±5 g) and SPF Sprague-Dawley rats (weighing 235±10 g) were separately divided into four groups of three and abdominally injected with the obovatol prepared in Example 2 at doses of 1000 mg/kg, 100 mg/kg, and 10 mg/kg and monitored for toxicity over 24 hours.

[6] = tested on: SPF Sprague-Dawley rats; experiment: Acute toxicity assay in rats; format: in vivo, rat; details: abdominal injection 1000, 100, 10 mg/kg
Description: as §1

[7] = tested on: injured carotid artery
Description: For the topical application of obovatol in vivo, pluronic gel was employed. F-127 pluronic gel (Sigma Chemical Company, Germany) was dissolved in cold, deionized water to give 40% gel one day before the experiment, and was allowed to stand at 4° C. for 12 hours to dissolve powdered F-127 pluronic gel completely. On the day of the experiment, obovatol was dissolved in a concentration of 10 μg/μL in 100% ethanol and 10 μL of the obovatol solution (10 μg/μL) was mixed with 90 μL of the 40% F-127 pluronic gel to afford 100 μL of obovatol-pluronic gel, comprising 100 μg of obovatol. A control was prepared in the same manner except that no obovatol was contained therein.
After rats were anaesthetized by abdominal injection with ketamine (50 mg/kg) and xylazine (6.7 mg/kg) and incised to expose the common carotid artery, the external carotid artery and the internal carotid artery were exteriorized through a ventral right line neck incision. While blood flow was temporarily halted by occluding the artery with microvascular clamps (Acland, S&T, Switzerland) at the proximal region of the common carotid artery and the distal region of the internal carotid artery, arteriotomy was performed on the external carotid artery. A 2F Fogarty arterial embolectomy catheter (Baxter Healthcare Corporation, USA) was inserted into the lumen of the right common carotid artery through the incised region and the balloon was inflated to a size larger than the diameter of the common carotid artery so as to generate slight arterial wall resistance. The catheter was advanced a predetermined distance and then withdrawn. This procedure was repeated a total of three times to induce endothelial denudation, after which the catheter (the balloon?) was removed from the arterial lumen. Then, the microvascular clamps were removed to allow blood to flow through the artery. Secretions and blood were completely removed from the exterior of the carotid artery before the obovatol-pluronic gel or the obovatol-lacking pluronic gel were topically applied in an amount of 100 μL to upper loci of the carotid artery, followed by ligation of the artery with a suture. Two weeks after the arteriotomy, a carotid artery angiography was conducted and a carotid artery sample was taken and analyzed histopathologically.

[8] = 100 μg obovatol in pluronic gel, topical, two weeks after injury, control 0.18 ± 0.06, P < 0.05

obovatol
inner diameter of carotid artery (mean luminal diameter) [1]: 0.78±0.06 mm | growth of arterial smooth muscle cells (cell count) [2]: inhibitory of the growth of arterial smooth muscle cells | DNA synthesis ([3H] thymidine incorporation) [3]: decreases with the increasing concentration of obovatol | proportion of cells in resting state (G0/G1) of the cell cycle [4]: increased the proportion of cells in a resting state (G0/G1) | abnormality (body weight, food intake, etc.) ([5]; 24 hours): no abnormality observed in any of the animals | death ([5]; monitored 24 hours): Death was observed in none of the four groups | abnormality (body weight, food intake, etc.) ([6]; 24 hours): no abnormality observed in any of the animals | death ([6]; monitored 24 hours): Death was observed in none of the four groups | Medial Area (mm^2) ([7]; 100 μg obovatol in pluronic gel, topical, two weeks after injury, control 0.12 ± 0.02, P > 0.05): 0.11 ± 0.10 mm^2 | Intimal Area (mm^2) [7, 8]: 0.13 ± 0.03 mm^2 | Intimal Thickness (mm) [7, 8]: 0.23 ± 0.02 mm | Intimal-Medial Area Ratio ([7]; 100 μg obovatol in pluronic gel, topical, two weeks after injury, control 1.54 ± 0.48, P < 0.05): 1.12 ± 0.23 | Stenosis (%) ([7]; 100 μg obovatol in pluronic gel, topical, two weeks after injury, control 50.10 ± 13.25, P < 0.01): 34.94 ± 7.23% | cytotoxicity inferred from similar medial thickness to control ([7]; rat, in vivo): no cytotoxicity

From patent US20080139668A1, “PHARMACEUTICAL COMPOSITION FOR OBOVATOL FOR THE PREVENTION AND TREATMENT OF RESTENOSIS” (Korea Research Institute of Bioscience and Biotechnology, priority 2006, published 2008)
